Experiments:
[1] = test system: Plättchenaggregation im Gesamtblut; assay: collagen-induced platelet aggregation in whole blood of rats after administration of the substances (ex vivo); design: species or system Ratten; settings: rat, versus vehicle controls
Method: (§1) Ratten mit einem durchschnittlichen Körpergewicht von 250 bis 300 g wurden mit 60 mg/kg Pentobarbital narkotisiert. Aus der abdominalen Arterie wurde 4,5 ml Blut entnommen und in 0,5 ml Zitrat (3,8 %) gegeben. Das Blut von 3 Ratten wurde jeweils gepoolt und Proben hiervon, die Lösungsmittel, die Einzelsubstanzen oder die zu untersuchende Kombination enthielten, wurden 10 Minuten lang rotiert. Von diesen Proben wurden jeweils 200 µl in Aggregometer-Küvetten gegeben und 5 Minuten lang bei 37°C gerührt. Anschließend wurden 10 µl Collagenlösung (Endkonzentration: 7 µg/ml) zugegeben und zu verschiedenen Zeiten jeweils 10 µl Blut entnommen, welches anschließend mit Formaldehyd fixiert wurde. In diesen Proben wurden die nicht aggregierten Plättchen mit einem Ultra-Flo 100 (Becton-Dickinson) bestimmt. Die nachfolgende Tabelle enthält die gefundenen Werte:
Desweiteren wurde die synergistische Wirkung auf die Plättchenaggregation im Gesamtblut für die Kombination, bestehen aus Pimobendan (Substanz C) und Substanz B in Vergleich zu den Einzelverbindungen wie folgt untersucht: Ratten mit einem durchschnittlichen Körpergewicht von 250 bis 300 g Körpergewicht wurden 5 mg/kg Substanz C und 0,5 mg/kg Substanz B oder die Kombination im Vergleich zu Kontrollen, welche nur das Vehikel appliziert bekamen, gegeben. […]

[2] = test system: Plättchenaggregation im Gesamtblut; assay: collagen-induced platelet aggregation in pooled rat whole blood, substances added in vitro; type: cell-based, Ratten; settings: collagen 7 µg/ml, read-out: % Hemmung
Method: as §1, with “Werte: […]” for “Werte:”

[3] = in combination with Dipyridamol; J. Clin. Invest. 75, 1591-1599 (1985); cited from earlier work

COc1ccc(-c2nc3ccc(C4=NNC(=O)CC4C)cc3[nH]2)cc1 (stereo not drawn) [Substanz C, 2-(4-Methoxy-phenyl)-5(6)-(5-methyl-3-oxo-4,5-dihydro-2H-6-pyridazinyl)-benzimidazol, reference compound]
% Hemmung ([1]; dose 5,0 mg/kg): -1%

O=C(O)CCCc1ccc2c(c1)CC(NS(=O)(=O)c1ccc(Cl)cc1)C2 (stereo not drawn) [Substanz B, 4-[2-p-Chlorbenzolsulfonamido-indan-5-yl]-buttersäure]
% Hemmung ([1]; dose 0,5 mg/kg): 59% | inhibition at 0.1 µM ([2]; 0,10 µMol/l): 3% | inhibition at 0.3 µM ([2]; 0,30 µMol/l): 19%

CCOc1nc(N2CCNCC2)nc(N2CC[S+]([O-])CC2)c1[N+](=O)[O-] [Substanz A, 6-Äthoxy-5-nitro-4-(1-oxidothiomorpholino)-2-piperazino-pyrimidin]
inhibition at 0.03 µM ([2]; 0,03 µMol/l): 4%

O=C(O)c1ccc(OCCn2ccnc2)cc1 [Dazoxiben, 4-[2-(1H-Imidazol-1-yl)-ethoxy]benzoesäure]
Einfluß auf die antithrombotische Wirkung des PDE-Hemmers [3]: keinen verbessernden Einfluß

— patent publication EP0306846A2, “Synergistic combination comprising a phosphodiesterase inhibitor and a thromboxane-A2 antagonist, and its use or preparation” (Dr. Karl Thomae GmbH, priority 1987, dated 1989)
